pIC50: −log10 of the molar value.
Tests used:
[1] = tested on: SW480 cells; assay: Western blot analysis in SW480 cells; assay type: cell-based, human
Procedure: SW-480 and HT-29 (3×10^5) cells were seeded in six-well plates in DMEM/Ham's F-12 media containing 2.5% charcoal-stripped FBS for 24 h and then treated with either the vehicle (DMSO) or the indicated compounds. Whole-cell lysates were obtained using high-salt buffer [50 mM HEPES, 500 mM NaCl, 1.5 mM MgCl2, 1 mM EGTA, 10% glycerol, and 1% Triton X-100, pH 7.5, and 5 μl/ml Protease Inhibitor Cocktail (Sigma-Aldrich)]. Protein samples were incubated at 100° C. for 2 min, separated on 10% SDS-PAGE at 120 V for 3 to 4 h in 1× running buffer (25 mM Tris-base, 192 mM glycine, and 0.1% SDS, pH 8.3), and transferred to polyvinylidene difluoride membrane (PVDF; Bio-Rad, Hercules, Calif.) at […] for 16 h at 4° C. in 1× transfer buffer (48 mM Tris-HCl, 39 mM glycine, and 0.025% SDS). The PVDF membrane was blocked in 5% TBST-Blotto (10 mM Tris-HCl, 150 mM NaCl, pH 8.0, 0.05% Triton X-100, and 5% nonfat dry milk) with gentle shaking for 30 min and was incubated in fresh 5% TBST-Blotto with 1:1000 (for caveolin-1, p27, p21, cyclin D1, Grp78), 1:500 (for KLF4, NAG-1), 1:250 (for PARP), and 1:5000 (for β-actin) primary antibody overnight with gentle shaking at 4° C. After washing with TBST for 10 min, the PVDF membrane was incubated with secondary antibody (1:5000) in 5% TBST-Blotto for 90 min. The membrane was washed with TBST for 10 min, incubated with 10 ml of chemiluminescence substrate (PerkinElmer) for 1.0 min, and exposed to Kodak X-OMAT AR autoradiography film (Eastman Kodak, Rochester, N.Y.).

[2] = tested on: PPARγ; settings: SW480 cells, previous studies (22); cited from earlier work
[3] = tested on: SW480 colon cancer cells; assay: Cell proliferation assay in SW480 cells; assay type: cell-based; settings: Homo sapiens, read-out: IC50, growth inhibition / cell proliferation
Procedure: (§1) Human colon carcinoma cell lines SW480 and HT29 were provided by Dr. Stan Hamilton, M.D. Anderson Cancer Center (Houston, Tex.); SW-480 and HT-29 cells were maintained in Dulbecco's modified Eagle's medium nutrient mixture with Ham's F-12 (DMEM/Ham's F-12; Sigma-Aldrich, St. Louis, Mo.) with phenol red supplemented with 0.22% sodium bicarbonate, 0.011% sodium pyruvate, and 5% fetal bovine serum and 10 ml/l 100× antibiotic antimycotic solution (Sigma-Aldrich). Cells were maintained at 37° C. in the presence of 5% CO2.
(§2) SW480 and HT 29 Cells (2×10^4) were plated in 12-well plates, and media were replaced the next day with DMEM/Ham's F-12 media containing 2.5% charcoal-stripped FBS and either vehicle (DMSO) or the indicated ligand and dissolved in DMSO. Fresh media and compounds were added every 48 h. Cells were counted at the indicated times using a Coulter Z1 cell counter. Each experiment was done in triplicate, and results are expressed as means±S.E. for each determination

[4] = tested on: Panc28 pancreatic cancer cells; assay: Growth inhibition in Panc28 pancreatic cancer cells; assay type: cell-based; settings: Pancreatic cancer cell
[5] = tested on: PPARγ; assay: PPARγ-GAL4/pGAL4 transfection and luciferase assay in HT-29 cells; assay type: cell-based
Procedure: (§3) The Gal4 reporter containing 5× Gal4 response elements (pGal4) was kindly provided by Dr. Marty Mayo (University of North Carolina, Chapel Hill, N.C.). Gal4 DBD-PPARγ construct (gPPARγ) was a gift of Dr. Jennifer L. Oberfield (GlaxoSmithKline Research and Development, Research Triangle Park, N.C.). PPRE3-luc construct contains three tandem PPREs with a minimal TATA sequence in pGL2.
(§4) Colon Cancer cell lines SW480 and HT29 (1×10^5 cells/well) were plated in 12-well plates in DMEM/Ham's F-12 media supplemented with 2.5% charcoal-stripped FBS. After 16 h, various amounts of DNA [i.e., Gal4Luc (0.4 μg), β-Gal (0.04 μg), Gal4PPAR and PPRE3-Luc (0.04 μg)] were transfected using LipofectAMINE™ reagent (Invitrogen) following the manufacturer's protocol. Five hours after transfection, the transfection mix was replaced with complete media containing either vehicle (DMSO) or the indicated ligand for 20 to 22 h. Cells were then lysed with 100 μl of 1× reporter lysis buffer, and 30 μl of cell extract was used for luciferase and […] assays. A LumiCount™ luminometer (PerkinElmer Life and Analytical Sciences) was used to quantitate luciferase and β-Gal activities, and the luciferase activities were normalized to β-Gal activity. Results are expressed as means±S.E. for at least three replicate determinations for each treatment group

[6] = tested on: HT-29 colon cancer cells; assay: Cell proliferation assay in HT-29 cells; assay type: cell-based; settings: Homo sapiens, read-out: IC50, growth inhibition / cell proliferation
Procedure: as §1, §2

[7] = tested on: PPARγ; assay: PPARγ-GAL4/pGAL4 transfection and luciferase assay in SW480 cells; assay type: cell-based; settings: for PPARγ transactivation: up to 30 μM
Procedure: as §3, §4

[8] = biological target: T1, PPARγ (Homo sapiens, UniProt P37231); assay: PPRE3-Luc transfection and luciferase assay in SW480 cells; assay type: cell-based
T1 construct: endogenous in cells; host or cells: SW480 colon cancer cells
T1 sequence (P37231 1-505): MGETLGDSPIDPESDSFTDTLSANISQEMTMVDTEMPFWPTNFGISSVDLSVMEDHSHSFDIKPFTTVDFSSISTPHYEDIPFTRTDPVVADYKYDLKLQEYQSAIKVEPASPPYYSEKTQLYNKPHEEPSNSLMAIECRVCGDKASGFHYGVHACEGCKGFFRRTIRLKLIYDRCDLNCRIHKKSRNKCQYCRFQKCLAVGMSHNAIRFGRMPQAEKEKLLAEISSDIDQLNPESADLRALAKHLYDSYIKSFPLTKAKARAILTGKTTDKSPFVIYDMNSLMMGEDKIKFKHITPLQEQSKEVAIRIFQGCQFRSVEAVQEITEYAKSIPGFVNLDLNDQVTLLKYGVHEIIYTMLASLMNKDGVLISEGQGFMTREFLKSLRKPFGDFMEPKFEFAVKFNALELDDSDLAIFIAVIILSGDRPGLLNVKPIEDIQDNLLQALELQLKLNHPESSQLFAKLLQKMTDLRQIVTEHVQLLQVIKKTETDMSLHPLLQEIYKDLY
Procedure: as §3, §4

[9] = tested on: LNCaP human prostate carcinoma cells; assay: Cell proliferation assay in LNCaP cells; assay type: cell-based; settings: 96 hr, read-out: IC50, inhibition of LNCaP cell growth
Procedure: Cell lines: LNCaP human prostate carcinoma cells were obtained from American Type Culture Collection (Manassas, Va.). Fetal bovine serum was obtained from JRH Biosciences, Lenexa, Kans. LNCaP cells were maintained in RPMI 1640 (Sigma Chemical, St. Louis, Mo.) supplemented with 0.22% sodium bicarbonate, 0.011% sodium pyruvate, 0.45% glucose, 0.24% HEPES, 10% FBS, and 10 mL/L of 100× antibiotic/antimycotic solution (Sigma). Cells were maintained at 37° C. in the presence of 5% CO2.
Cell Proliferation and DNA Fragmentation Assays: LNCaP prostate cancer cells (2×10^4 per well) were added to 12-well plates and allowed to attach for 24 hr. The medium was then changed to DMEM/Ham's F-12 media containing 2.5% charcoal-stripped FBS, and either vehicle (DMSO) or the indicated C-DIMs were added. Fresh medium and indicated compounds were added every 48 hr, and cells were then trypsinized and counted after 2, 4, and 6 days using a Coulter Z1 cell counter (Beckman Coulter, Fullerton, Calif.). Each experiment was done in triplicate, and results are expressed as means±S.E. for each set of three experiments. The DNA fragmentation assay was performed using a BioVision Apoptotic DNA ladder extraction kit (BioVision, Mountain View, Calif.) according to the manufacturer's protocol.

[10] = tested on: PPARγ; assay: PPARγ-GAL4/GAL4-Luc or PPRE3-Luc transactivation in LNCaP cells; assay type: cell-based; settings: 1-5 μM
Excerpt: Transfections: The Gal4 reporter construct containing 5× Gal4 response elements (pGal4) was kindly provided by Dr. Marty Mayo (University of North Carolina, Chapel Hill, N.C.). The Gal4 DBD-PPARγ construct was a gift of Dr. Jennifer L. Oberfield (Glaxo Wellcome Research and Development, Research Triangle Park, N.C.). The PPRE-luc construct contains three tandem PPREs with a minimal TATA sequence linked to the luciferase gene in pGL2. The AR-luc construct containing the −5400 to +580 region of the androgen receptor promoter was provided by Dr. Donald J. Tindall (Mayo Clinic, Rochester, Minn.), and the PSA-luc construct containing the 5.8-kilobase region of the PSA promoter was provided by Dr. Hong-Wu Cheng (University of California, Davis, Calif.). LNCaP cells (1×10^5) were seeded in 12-well plates in DMEM/Ham's F-12 media supplemented with 2.5% charcoal-stripped FBS and grown overnight. Transient transfections were performed using Lipofectamine reagent (Invitrogen) according to the protocol provided by the manufacturer. Transfection studies were performed using 0.4 μg of Gal4Luc, 0.04 μg of β-galactosidase, 0.04 μg of Gal4 DBD-PPARγ, 0.4 μg of AR-luc, and 0.3 μg of PSA-luc. Six hr after transfection, the transfection mix was replaced with complete media containing either vehicle (DMSO) or the indicated ligand for 20 to 22 hr. Cells were then lysed with 100 μl of 1× reporter lysis buffer, and 30 μl of cell extract was used for luciferase and β-galactosidase assays. A Lumicount luminometer (PerkinElmer Life and Analytical Sciences) was used to quantify luciferase and β-galactosidase activities, and the luciferase activities were normalized to β-galactosidase activity.

| pIC50 [3] | melting point | pIC50 [6] | Molecule | PPARγ transactivation (GAL4-PPARγ/GAL4-Luc) [5] | PPARγ transactivation [7] | pIC50 [9] | PPARγ-dependent transactivation (luciferase activity) [10] | other results |
| --- | --- | --- | --- | --- | --- | --- | --- | --- |
| 6.30 | – | – | COC(=O)[C@@]1(C)CC[C@]2(C)CC[C@]3(C)C(=CC(=O)[C@@H]4[C@@]5(C)C=C(C#N)C(=O)C(C)(C)[C@@H]5CC[C@]43C)[C@H]2C1 [α-CDODA-Me, Methyl 2-cyano-3,11-dioxo-18α-oleana-1,12-dien-30-oate] | – | – | – | – | pIC50 [4]: 6.00 to 6.30 |
| 4.60 | 270 to 275 °C | 4.52 to 4.70 | CC1(C)C(=O)C=C[C@]2(C)[C@H]3C(=O)C=C4[C@@H]5C[C@@](C)(C(=O)O)CC[C@]5(C)CC[C@@]4(C)[C@]3(C)CC[C@@H]12 [β-DODA, 3,11-Dioxo-18β-oleana-1,12-dien-30-oic acid] | minimal activity | did not enhance transactivation | < 4.82 | – | – |

Second part, the molecule before the results:

| Molecule | pIC50 [3] | melting point | pIC50 [6] | PPARγ transactivation (GAL4-PPARγ/GAL4-Luc) [5] | PPARγ transactivation [7] | pIC50 [9] | PPARγ-dependent transactivation (luciferase activity) [10] | other results |
| --- | --- | --- | --- | --- | --- | --- | --- | --- |
| CC1(C)CC[C@]2(C(=O)O)CC[C@]3(C)[C@H](C(=O)C=C4[C@@]5(C)C=C(C#N)C(=O)C(C)(C)[C@@H]5CC[C@]43C)[C@@H]2C1 [CDDO, 2-cyano-3,12-dioxo-oleana-1, 9(11)-diene-28-oic acid, reference compound] | – | – | – | – | – | – | – | caveolin-1 protein expression ([1]; SW480, treatment for 3 days): induce caveolin-1 protein; luciferase activity with GAL4-PPARγ/GAL4-Luc [2]: induced luciferase activity |
| CC1(C)C(=O)C(C#N)=C[C@]2(C)[C@H]3C(=O)C=C4[C@@H]5C[C@@](C)(C(=O)O)CC[C@]5(C)CC[C@@]4(C)[C@]3(C)CC[C@@H]12 [β-CDODA, 2-cyano-3,11-dioxo-18β-oleana-1,12-dien-30-oic acid] | 5.30 to 5.60 | 195 to 197 °C | 6.00 | induced transactivation | – | – | – | induced luciferase activity after cotreatment with PPARγ antagonist T007 ([7]; 1.0, 2.5, 5.0 β-CDODA-Me or 10, 20, 30 μM β-CDODA, 10 μM T007): inhibited; increase in luciferase activity (PPARγ activation) ([7]; 20-30 μM): < 4.5 fold; transactivation of PPRE3-Luc [8]: induced transactivation; PPRE3-Luc transactivation after cotreatment with PPARγ antagonists T007 and GW9662 ([8]; 10 μM antagonist): inhibited; concentration at which KLF4 is induced ([1]; SW480, 24 hr): 10 to 20 µM; PARP cleavage ([1]; SW480, 24 hr, 10-40 μM): observed |
| COC(=O)[C@@]1(C)CC[C@]2(C)CC[C@]3(C)C(=CC(=O)[C@@H]4[C@@]5(C)C=CC(=O)C(C)(C)[C@@H]5CC[C@]43C)[C@@H]2C1 [β-DODA-Me, Methyl 3,11-dioxo-18β-oleana-1,12-dien-30-oate] | 5.00 | 192 to 194 °C | 5.00 to 5.30 | minimal activity | did not enhance transactivation | 4.82 to 5.00 | did not activate PPARγ | – |
| Methyl 2-iodo-3,11-dioxo-18β-oleana-1,12-diene-30-oate [β-IDODA-Me] | – | – | – | – | – | – | did not activate PPARγ | – |
